According to BindingDB's records for doi:10.1021/acs.jnatprod.6b00262 (Kindai University, 2016):

Experiment: Antagonist activity at human EGFP-fused CCR3 expressed in mouse L1.2 cells assessed as inhibition of CCL11-induced chemotaxis measured after 1.5 hrs by PicoGreen dsDNA reagent-based assay

EC50 [nM]	Compound
1400	C=CCc1cc(OC)c(O[C@@H](C)[C@H](OC(C)=O)c2ccc(OC)c(OC)c2)c(OC)c1
1600	C/C=C/c1cc(OC)c2c(c1)[C@@H](C)[C@H](c1cc(OC)c(O)c(OC)c1)O2
780	COC(=O)[C@H](Cc1ccc([N+](=O)[O-])cc1)NC(=O)c1cccc2ccccc12 [(S)-2-[(Naphthalene-1-carbonyl)-amino]-3-(4-nitro-phenyl)-propionic acid methyl ester]
1500	C=CCc1cc(OC)c(O[C@H](C)[C@@H](O)c2cc(OC)c(O)c(OC)c2)c(OC)c1
